Measured values from patent US20110038791A1, “METHODS FOR INHIBITING SIX1 AND EYA PROTEINS” (priority 2008, published 2011).
Read-outs that look alike come from different tables or passages of the source. Values belong to the molecule of their own block, whether it stands above or below them.

Biological target: T1, human Eya2 Eya Domain (ED) (Homo sapiens, UniProt O00167)
T1 construct: a highly conserved C-terminal Eya domain (ED); made in house; host or cells: E. coli
T1 sequence (O00167 253-538 limits assumed): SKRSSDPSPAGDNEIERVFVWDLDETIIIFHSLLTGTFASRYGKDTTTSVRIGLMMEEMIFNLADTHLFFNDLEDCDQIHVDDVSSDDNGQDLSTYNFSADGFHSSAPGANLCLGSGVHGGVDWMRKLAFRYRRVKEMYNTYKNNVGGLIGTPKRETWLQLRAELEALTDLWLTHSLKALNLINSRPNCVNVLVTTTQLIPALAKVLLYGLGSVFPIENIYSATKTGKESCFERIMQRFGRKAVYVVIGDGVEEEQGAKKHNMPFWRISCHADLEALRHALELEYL
Test: Inhibition of the phosphatase activity of Eya2 Eya Domain (ED) by known phosphatase inhibitors
Format: biochemical
Conditions: for IC50: human Eya2 ED, FIG. 20

[1] = at the concentrations that typically completely inhibit their cognate phosphatases

effect on ED phosphatase activity [1]: no effect
Molecule: N[C@@H](Cc1ccccc1)C(=O)O [L-phenylalanine]

IC50: 11.3 ± 1.6 mM
Molecule: [Na+].[Na+].[O]=[Mo](=[O])([O-])[O-] [Na2MoO4]

IC50: 1.8 ± 0.2 mM
Molecule: [Na+].[Na+].[Na+].[O]=[V]([O-])([O-])[O-] [Na3VO4]

IC50: 8.2 ± 2.1 mM
Molecule: O=P(O)(O)OC(CO)CO [β-glycerophosphate]

Second part, the molecule before the results:

Molecule: c1cnc2c(c1)ccc1cccnc12 [(1, 10)-phenanthroline]
effect on ED phosphatase activity [1]: no effect

Molecule: C=C1[C@@H](O)[C@@H]2O[C@]3(CC[C@H](/C=C/[C@@H](C)[C@@H]4CC(C)=C[C@@]5(O[C@H](C[C@@](C)(O)C(=O)O)CC[C@H]5O)O4)O3)CC[C@H]2O[C@@H]1[C@@H](O)C[C@H](C)[C@H]1O[C@@]2(CCCCO2)CC[C@H]1C [Okadaic acid]
effect on ED phosphatase activity: no effect

Molecule: cyclosporine A
effect on ED phosphatase activity: no effect
